The results in this text go back to ChEMBL document CHEMBL1128045, “Antifungal lipopeptides: Structure-activity relationships of 3-hydroxyglutamine-modified pneumocandin B0 derivatives” (Bioorg Med Chem Lett, 1995).

Values after ≈ are worked out from the molar mass of the structure shown. Numbered stars: 1 amine (or outer) side, 2 acyl side, 3 side chain; on linkers, the order of the positions; unused ones are H or OH. Bridge positions count the residues as written; N and C are the ends. Square brackets hold non-standard residues; d marks the D form. Peptide text beside a SMILES is read from it. * marks the point of attachment. Orn(4R-OH,5R-OH) = O=C([C@H](C[C@@H](O)[C@@H](O)N[*:3])N[*:1])[*:2]; hTyr(3S-OH,4S-OH) = N[C@H](C(=O)O)[C@H](O)[C@@H](O)c1ccc(O)cc1; X10 = N#CCN(CC#N)CC[C@@H](O)[C@H](N[*:1])C(=O)[*:2]; X12 = CC(=O)NCC[C@@H](O)[C@H](N[*:1])C(=O)[*:2]; X13 = CNCC[C@@H](O)[C@H](N[*:1])C(=O)[*:2]; Pro(3S-OH) = O=C(O)[C@H]1NCC[C@@H]1O; Hyp = O=C(O)[C@@H]1C[C@@H](O)CN1; X1 = CCC(C)CC(C)CCCCCCCCC(=O)*

One assay deals with Beta-1,3-glucan synthase (Candida albicans, UniProt O13428). In words: Tested for inhibition of Beta-1,3-glucan synthase using a crude membrane of Candida albicans (MY 1208).
The nature of assay [1]: In vivo anti-Candida activity was determined in a mouse model of disseminated candidiasis (TOKA). Format: functional.
Another assay deals with Candida albicans. Kind of assay: In vitro Fungicidal activity (MFC) against Candida albicans (MY 1055). The format is functional.
Another assay has as its system Candida parapsilosis. Kind of assay: In vitro Fungicidal activity (MFC) against Candida parapsilosis (MY 1010). Format: functional. Conditions: Lodderomyces parapsilosis.

Beta-1,3-glucan synthase, sequence (O13428 whole entry): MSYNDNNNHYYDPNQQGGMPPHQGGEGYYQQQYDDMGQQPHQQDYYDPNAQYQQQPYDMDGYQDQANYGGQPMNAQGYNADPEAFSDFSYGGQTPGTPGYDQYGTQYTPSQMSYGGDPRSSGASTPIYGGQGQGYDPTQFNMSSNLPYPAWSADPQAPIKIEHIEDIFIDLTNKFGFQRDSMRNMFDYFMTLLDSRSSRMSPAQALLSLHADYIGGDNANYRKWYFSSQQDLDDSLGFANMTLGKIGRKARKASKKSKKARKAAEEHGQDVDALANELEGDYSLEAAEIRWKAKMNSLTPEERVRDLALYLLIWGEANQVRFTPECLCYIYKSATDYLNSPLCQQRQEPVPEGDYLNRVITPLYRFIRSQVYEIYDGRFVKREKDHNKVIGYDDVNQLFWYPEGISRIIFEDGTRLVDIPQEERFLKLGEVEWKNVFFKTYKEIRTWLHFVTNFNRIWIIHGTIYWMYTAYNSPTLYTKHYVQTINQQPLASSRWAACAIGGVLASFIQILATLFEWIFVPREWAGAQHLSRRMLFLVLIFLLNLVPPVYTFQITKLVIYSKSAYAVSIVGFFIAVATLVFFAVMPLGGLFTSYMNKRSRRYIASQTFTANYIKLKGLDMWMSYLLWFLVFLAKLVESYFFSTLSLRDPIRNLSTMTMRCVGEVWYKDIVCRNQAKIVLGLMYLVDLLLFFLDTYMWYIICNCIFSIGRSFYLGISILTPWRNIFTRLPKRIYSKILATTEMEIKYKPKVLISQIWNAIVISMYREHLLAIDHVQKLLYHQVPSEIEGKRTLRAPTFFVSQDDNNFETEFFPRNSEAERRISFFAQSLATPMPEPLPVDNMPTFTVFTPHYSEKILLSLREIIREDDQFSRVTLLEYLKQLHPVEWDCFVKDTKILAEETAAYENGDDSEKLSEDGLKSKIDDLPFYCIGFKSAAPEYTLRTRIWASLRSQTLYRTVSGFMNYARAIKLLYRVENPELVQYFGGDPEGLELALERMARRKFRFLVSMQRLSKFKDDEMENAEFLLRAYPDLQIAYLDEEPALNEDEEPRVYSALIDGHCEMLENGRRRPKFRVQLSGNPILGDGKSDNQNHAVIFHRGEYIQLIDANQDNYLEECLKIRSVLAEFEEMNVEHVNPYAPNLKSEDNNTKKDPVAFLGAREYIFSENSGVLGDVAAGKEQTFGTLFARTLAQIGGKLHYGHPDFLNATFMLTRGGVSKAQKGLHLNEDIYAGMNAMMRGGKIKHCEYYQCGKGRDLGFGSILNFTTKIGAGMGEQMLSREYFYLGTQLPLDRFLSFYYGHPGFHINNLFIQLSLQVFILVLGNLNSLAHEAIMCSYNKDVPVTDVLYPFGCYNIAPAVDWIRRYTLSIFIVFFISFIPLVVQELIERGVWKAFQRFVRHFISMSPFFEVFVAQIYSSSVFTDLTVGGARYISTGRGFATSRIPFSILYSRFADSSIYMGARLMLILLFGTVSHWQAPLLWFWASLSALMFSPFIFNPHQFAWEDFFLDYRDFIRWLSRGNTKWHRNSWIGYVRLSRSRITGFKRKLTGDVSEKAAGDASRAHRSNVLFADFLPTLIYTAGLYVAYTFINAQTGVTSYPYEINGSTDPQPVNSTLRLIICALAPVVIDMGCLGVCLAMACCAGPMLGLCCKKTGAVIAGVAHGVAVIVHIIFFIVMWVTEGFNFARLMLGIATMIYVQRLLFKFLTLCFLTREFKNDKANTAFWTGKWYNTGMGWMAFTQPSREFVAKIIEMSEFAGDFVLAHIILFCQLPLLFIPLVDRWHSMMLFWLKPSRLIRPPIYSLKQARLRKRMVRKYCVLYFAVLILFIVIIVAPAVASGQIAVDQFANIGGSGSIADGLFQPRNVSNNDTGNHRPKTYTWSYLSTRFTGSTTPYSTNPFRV

Usually IC50 stands for the concentration that gives 50% inhibition. A lower IC50 goes with greater potency in that assay. For orientation: MFC means the smallest concentration meeting the test's criterion for killing the fungus. As to `CCC(C)CC(C)CCCCCCCCC(=O)N[C@H]1C[C@@H](O)[C@@H](O)NC(=O)[C@@H]2[C@@H](O)CCN2C(=O)[C@H]([C@H](O)CCN(CC#N)CC#N)NC(=O)[C@H]([C@H](O)[C@@H](O)c2ccc(O)cc2)NC(=O)[C@@H]2C[C@@H](O)CN2C(=O)[C@H]([C@@H](C)O)NC1=O` (stereo partly drawn) (X1-[Orn(4R-OH,5R-OH)]T[Hyp][hTyr(3S-OH,4S-OH)][X10][Pro(3S-OH)]; lactam 1-C), the IC50 against Beta-1,3-glucan synthase is > 200 nM. The ED99.9 in assay [1] is >1.5 mg/kg. Further, the MFC turned out to be 4 µg/mL (≈ 3.54 µM) with Candida albicans and 8 µg/mL (≈ 7.08 µM) in the assay with Candida parapsilosis.

On Beta-1,3-glucan synthase, `CCC(C)CC(C)CCCCCCCCC(=O)N[C@H]1C[C@@H](O)[C@@H](O)NC(=O)[C@@H]2[C@@H](O)CCN2C(=O)[C@H]([C@H](O)CCNC(C)=O)NC(=O)[C@H]([C@H](O)[C@@H](O)c2ccc(O)cc2)NC(=O)[C@@H]2C[C@@H](O)CN2C(=O)[C@H]([C@@H](C)O)NC1=O` (stereo partly drawn) (X1-[Orn(4R-OH,5R-OH)]T[Hyp][hTyr(3S-OH,4S-OH)][X12][Pro(3S-OH)]; lactam 1-C) gave an IC50 of 300 nM. In addition, the ED99.9 in assay [1] was determined as 12 mg/kg. In addition, the MFC against Candida albicans was determined as 4 µg/mL (≈ 3.66 µM); against Candida parapsilosis, 8 µg/mL (≈ 7.32 µM).

On Beta-1,3-glucan synthase, `CCC(C)CC(C)CCCCCCCCC(=O)N[C@H]1C[C@@H](O)[C@@H](O)NC(=O)[C@@H]2[C@@H](O)CCN2C(=O)[C@H]([C@H](O)CCNC)NC(=O)[C@H]([C@H](O)[C@@H](O)c2ccc(O)cc2)NC(=O)[C@@H]2C[C@@H](O)CN2C(=O)[C@H]([C@@H](C)O)NC1=O` (stereo partly drawn) (X1-[Orn(4R-OH,5R-OH)]T[Hyp][hTyr(3S-OH,4S-OH)][X13][Pro(3S-OH)]; lactam 1-C) returned an IC50 of 7 nM. The molecule further came in with an ED99.9 in assay [1] of 0.375 mg/kg. The MFC against Candida albicans and in the assay on Candida parapsilosis was 2 µg/mL (≈ 1.88 µM) in each case.
